A short description of assay [1]: 24 hr urinalysis in metabolic cages, plasma and urine electrolytes. Format: in vivo, mouse. The protocol:
Age (9-10 weeks old) and sex (male) matched wild-type and CLDN14 KO mice were housed individually in metabolic cages (Harvard Apparatus) with free access to water and food for 24 hr. Urine was collected under mineral oil. The plasma and urine Ca^++ and Mg^2+ levels were determined with atomic flame absorption spectrophotometer (PerkinElmer). The plasma (P) and urine (U) electrolyte levels were determined with the Roche Cobas clinical analyzer (Roche Diagnostics). […] The fractional excretion of electrolytes was calculated using the following equation: FEion=V×Uion/(GFR×Pion), where GFR was calculated according to the clearance rate of creatinine (GFR=V×Ucreatinine/Pcreatinine).
Mice were housed individually in metabolic cages (Harvard Apparatus) with free access to water and food for 24 hr. Urine was collected under mineral oil. The plasma and urine Ca^++ and Mg^++ levels were determined with atomic flame absorption spectrophotometer (PerkinElmer). The creatinine levels were measured with an enzymatic method that was independent of plasma chromogens.

The test system of another assay is claudin-14 mRNA. Put plainly: claudin-14 mRNA levels in mouse kidney after systemic treatment (real-time PCR). Format: in vivo. Particulars: 1 mg/kg BW−1; 4 hr. Here is the method: NPS2143 and cinacalcet (Table 1) were dissolved in vehicle—20% (w/v) (2-Hydroxypropyl)-β-cyclodextrin solution and fed to mice with gavage syringe. Cyclosporin-A (Sandimmune; Table 1) was diluted in 0.9% saline and I.P. injected to animals. Control animals received vehicle injection (13% wiv Cremophor EL and 32.9% ethanol). For dietary Ca^2+ manipulation, animals were fed with the following diets for six consecutive days: basal diet: 0.61% Ca^2+ (TestDiet #5755); low Ca^2+ diet: 0 Ca^++ (TestDiet #5855); high Ca^2+ diet: 5% Ca^2+ (TestDiet #5AVB). All animals had free access to water and were housed under a 12 hr light cycle. Blood samples were taken by cardiac puncture rapidly after initiation of terminal anesthesia and centrifuged at 4° C. for 10 min. Kidney were dissected out and immediately frozen at −80° C.
(§1) Total RNA including microRNA was extracted using Trizol (Invitrogen). Cellular mRNA was reverse transcribed using the Superscript-III kit (Invitrogen), followed by real-time PCR amplification using SYBR Green PCR Master Mix (Bio-Rad) and Eppendorf Realplex2S system. The design of claudin-14 primers was described above. The design of pri-miRNA primers was according to Ma et al., (2010). Results were expressed as 2^−ΔCt values with ΔCT=Ctgene−Ctβ-actin.
SAHA and TsA were dissolved in 5% (w/v) ethanol/0.9% saline solution and fed to mice with gavage syringe. Furosemide was dissolved in 50% (w/v) DMSO/0.9% saline solution and I.P. injected to animals. All animals had free access to water and were housed under a 12 hr light cycle. Blood samples were taken by cardiac puncture rapidly after initiation of terminal anesthesia and centrifuged at 4° C. for 10 min. Kidney were dissected out and immediately frozen at −80° C.
Total RNA including microRNA was extracted using Trizol (Invitrogen). Cellular mRNA was reverse transcribed using the Superscript-III kit (Invitrogen), followed by real-time PCR amplification using SYBR Green PCR Master Mix (Bio-Rad) and Eppendorf Realplex2S system. The design of claudin-14 primers was described before by Gong et al., 2012. The design of pri-miRNA primers and ChIP primers was according to Gong et al., 2013. Results were expressed as 2^−ΔCt values with ΔCT=Ctgene−Ctβ-actin. […]
NPS2143 and cinacalcet (Table 9) were dissolved in vehicle −20% (w/v) (2-Hydroxypropyl)-β-cyclodextrin solution and fed to mice with gavage syringe. Cyclosporin-A (Sandimmune; Table 9) was diluted in 0.9% saline and I.P. injected to animals. Control animals received CNI vehicle injection (13% wiv Cremophor EL and 32.9% ethanol). FK506 was dissolved in CNI vehicle, diluted in 0.9% saline and I.P. injected to animals. For dietary Ca^+ manipulation, animals were fed with the following diets for six consecutive days: basal diet: 0.610% Ca^++ (TestDiet #5755); low Ca^++ diet: 0 Ca^++ (TestDiet #5855); high Ca^++ diet: 5% Ca^+ (TestDiet #5AVB). All animals had free access to water and were housed under a 12 hr light cycle. Blood samples were taken by cardiac puncture rapidly after initiation of terminal anesthesia and centrifuged at 4° C. for 10 min. Kidney were dissected out and immediately frozen at −80° C.
Total RNA including microRNA was extracted using Trizol (Invitrogen). Cellular mRNA was reverse transcribed using the Superscript-III kit (Invitrogen), followed by real-time PCR amplification using SYBR Green PCR Master Mix (Bio-Rad) and Eppendorf Realplex2S system. The design of claudin-14 primers was described before by Gong. Y., et al., 2012. The design of pri-miRNA primers was according to Ma. L., et al., 2010. Results were expressed as 2^−ΔCt values with ΔCT=Ctgene−Ctβ-actin.
A general note: In qPCR the cycle at which signal appears reflects the starting amount.

The subject of the next assay is CLDN14 mRNA. Briefly: CLDN14 mRNA levels in primary cultures / freshly isolated mouse TALH cells (real-time PCR). Type of assay: cell-based. Particulars: 0.01 μM; versus vehicle. Here is the method:
An immunomagnetic separation method was used to isolate the TAL cells from the mouse kidney (Hou et al., 2009). Antibodies against the TAL cell specific surface antigen, Tamm-Horsfall protein (THP), were coated onto the paramagnetic polystyrene beads (Dynabeads M-280; Dynal), allowing immunoprecipitation of the TAL cells from collagenase digested mouse kidneys. The isolated cells were plated in DMEM medium supplemented with 10% FBS, penicillin/streptomycin, and 1 mM sodium pyruvate for 16 hours, followed by immediate transfection with NFAT or antagomirs.
as §1
An immunomagnetic separation method was used to isolate the TALH cells from the mouse kidney. (Gong Y, et al. 2012 and Gong Y, et al. 2013) Antibodies against the TALH cell specific surface antigen, Tamm-Horsfall protein, were coated onto the paramagnetic polystyrene beads (Dynabeads M-280; Dynal), allowing immunoprecipitation of the TALH cells from collagenase digested mouse kidneys. The isolated cells were plated in DMEM medium supplemented with 10% FBS, penicillin/streptomycin, and 1 mM sodium pyruvate for 16 hours, followed by immediate treatment.
Total RNA including microRNA was extracted using Trizol (Invitrogen). Cellular mRNA was reverse transcribed using the Superscript-III kit (Invitrogen), followed by real-time PCR amplification using SYBR Green PCR Master Mix (Bio-Rad) and Eppendorf Realplex2S system. […] Results were expressed as 2^−ΔCt values with ΔCT=Ctgene−Ctβ-actin. […]
Total RNA including microRNA was extracted using Trizol (Invitrogen). […] Results were expressed as 2^−ΔCt values with ΔCT=Ctgene−Ctβ-actin. […]

Another assay concerns CLDN14. Put plainly: CLDN14 expression in cultured MKTAL cells. Type of assay: cell-based, mouse. Particulars: 1 nM, 10 nM and 100 nM.
The next assay concerns the target T1, human CLDN16 (AF152101) (human, UniProt Q9Y5I7 1-235).
T1 sequence (looked up): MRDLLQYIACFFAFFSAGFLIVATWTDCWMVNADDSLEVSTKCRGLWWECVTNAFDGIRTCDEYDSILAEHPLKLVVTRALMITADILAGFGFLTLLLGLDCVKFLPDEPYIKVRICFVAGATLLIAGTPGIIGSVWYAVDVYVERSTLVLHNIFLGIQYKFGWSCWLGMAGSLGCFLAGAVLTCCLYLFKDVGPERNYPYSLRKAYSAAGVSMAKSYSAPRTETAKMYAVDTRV
Briefly: cell-based or functional assay.

[2] abbreviates: WT pre-treated with furosemide 40 mg/kg BW−1 per day, Veh + Furo = furosemide alone.

Regarding `NS(=O)(=O)c1cc(C(=O)O)c(NCc2ccco2)cc1Cl` [Furo, Furosemide], in assay [1] (setting [2]), the ECa is 2.84 ± 0.78 ug/24 hr · g, the EMg amounted to 13.24 ± 3.13 ug/24 hr · g, the FECa came out at 1.89 ± 0.67 % and the FEMg turned out to be 32.83 ± 1.30 %. Moreover, in assay [1] (setting [2]), the PCa is listed as 10.61 ± 0.43 mg/dL and the PMg was 2.33 ± 0.11 mg/dL.
As for `CC(/C=C/C(=O)NO)=C\[C@@H](C)C(=O)c1ccc(N(C)C)cc1` [TsA, Trichostatin A], in the assay with claudin-14 mRNA, the “CLDN14 mRNA levels in the kidney, decrease” value worked out at 71%. In the assay with CLDN14 mRNA, the “CLDN14 mRNA levels, reduction” value turned out to be 64%. Moreover, the “effects on renal Ca++ and Mg++ metabolism (compared with SAHA)” value in assay [1] (1 mg/kg BW−1 per day) is given as “exerted similar effects”.

B1: PTH: human recombinant PTH (1-84; Sigma) (protein, UniProt P01270 32-115, looked up)
Parathyroid hormone: SVSEIQLMHNLGKHLNSMERVEWLRKKLQDVHNFVALGAPLAPRDAGSQRPRKKEDNVLVESHEKSLGEADKADVNVLTKAKSQ
modifications: Parathyroid hormone
For B1, the CLDN14 gene expression entry in the assay with CLDN14 is recorded as “no significant effect”.

B2: mouse CLDN14 (AF314089) (other, UniProt Q9Z0S3 1-239, looked up)
chain: MASTAVQLLGFLLSFLGMVGTLITTILPHWRRTAHVGTNILTAVSYLKGLWMECVWHSTGIYQCQIYRSLLALPRDLQAARALMVISCLLSGMACACAVVGMKCTRCAKGTPAKTTFAVLGGALFLLAGLLCMVAVSWTTNDVVQNFYNPLLPSGMKFEIGQALYLGFISSSLSLIGGTLLCLSCQDEAPYRPYPPQSRAGATTTATAPAYRPPAAYKDNRAPSVTSAAHSGYRLNDYV
Turning to B2, in the assay with human CLDN16 (AF152101), the “fold decrease of absolute Na+ permeability, CLDN14+16+19 versus CLDN16+19” value was found to be 2.43 fold and the “fold reduction of PNa by CLDN14 in CLDN16 cell background” value is 2.03 fold.

Values taken from patent publication US20140242609A1, “Diagnosis and treatment of kidney stones, methods and compositions therefor” (Washington University, priority 2013, published 2014).
